Experimental data published in patent US20100166851A1, “Composition having lipolytic activity, production method thereof and use of the composition” (NUTRACEUTIC ET BUSINESS CONSULTING, priority 2007, published 2010).

System: human adipocytes
Test: release of Not Esterified Fatty Acids (NEFA) by human adipocytes in suspension (ex-vivo lipolysis)
Type: cell-based
Conditions: for NEFA: human adipocytes, 2 hours at 37° C., n=3; for % of the control: NEFA released, 2 hours
Description: This experiment has been conducted on human adipocytes isolated from an abdominal plasty of a donor. […] To 540 uL of a suspension of adipocytes in a test medium milieu have been added 60 μL of compound to be tested, and the mixtures have been incubated at 37° C., under stirring, for 2 hours. A final concentration of theophylline in the tested mixture of 1 mM was maintained, starting from a stock solution of 10^−2 M in test medium. Likewise, a final concentration of isoproterenol in the tested mixture of 1 μM was maintained, starting from a stock solution of […] in test medium. A final concentration of caffeine in the tested mixture of 0.5 mM was also maintained, starting from a stock solution of 5 mM in test medium. […] Since the composition according to the invention is a powder, it was diluted in DMSO, on the one hand, and in test medium, on the other hand. The stock solution prepared with DMSO was prepared at 10 mg/mL, i.e. 1% (w/v), for a final concentration of the composition according to the invention in solution in DMSO in the tested mixture of 0.01%. […] A control comprising only the adipocytes in test medium was also prepared. A total of 10 doses were prepared from 10 different fractions with the compound added or not. […] The dose was prepared conventionally by means of a NEFA-C measuring kit. The measured data were processed statistically. Intergroup comparisons were carried out through variance analysis (ANOVA) by means of the Dunnet multiple comparison test.

## CC(C)NCC(O)c1ccc(O)c(O)c1 (stereo not drawn) [Isoproterenol, isoproterenol]
1.0 μM
  NEFA: 377 µM
  % of the control: 1048%
1 μM, p<0.01
  lipolysis stimulation, factor with respect to the control: 10

## Cn1c(=O)c2c(ncn2C)n(C)c1=O [Caffeine, caffeine]
0.5 mM
  NEFA: 339 µM
  % of the control: 941%
0.5 mM, p<0.01
  release of NEFA, factor with respect to the control: about 9.5

## Cn1c(=O)c2[nH]cnc2n(C)c1=O [Theophylline, theophylline]
1.0 mM
  NEFA: 381 µM
  % of the control: 1057%
1 mM, p<0.01
  lipolysis stimulation, factor with respect to the control: 10
